Source: ChEMBL document CHEMBL1201862, “PubChem BioAssay data set” (2004)
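96-well plates; 48 h exposure; 5 concentrations. Endpoints by linear interpolation between flanking doses. Not reached: highest tested concentration assigned. Here, GI50 denotes the concentration required for 50% inhibition of growth.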 Activity calls are given as the source filed them. Cut-off read from the data, not from the text of the source: active = GI50 up to about 1.1 µM and inactive = higher.

What was measured:
Test in all cases: inhibition of tumour cell growth, NCI panel, 48 h
SK-OV-3 = test system: SK-OV-3
UACC-62 = test system: UACC-62
CCRF-CEM = test system: CCRF-CEM
OVCAR-4 = test system: OVCAR-4
HCT-116 = test system: HCT-116
HL-60 = test system: HL-60
DMS-114 = test system: DMS-114
UACC-257 = test system: UACC-257
XF498 = test system: XF498
SR = test system: SR
U-251 = test system: U-251
MOLT-4 = test system: MOLT-4
UO-31 = test system: UO-31
HT-29 = test system: HT-29
HOP-92 = test system: HOP-92
LOX IMVI = test system: LOX IMVI
M14 = test system: M14
M19-MEL = test system: M19-MEL
K562 = test system: K562
SNB-78 = test system: SNB-78
KM-20L2 = test system: KM-20L2
SF-295 = test system: SF-295
EKVX = test system: EKVX
LXFL 529 = test system: LXFL 529
ACHN = test system: ACHN
SNB-75 = test system: SNB-75
DLD-1 = test system: DLD-1
OVCAR-8 = test system: OVCAR-8
A498 = test system: A498
SK-MEL-28 = test system: SK-MEL-28
HCC 2998 = test system: HCC 2998
OVCAR-5 = test system: OVCAR-5
OVCAR-3 = test system: OVCAR-3
NCI-H23 = test system: NCI-H23
RPMI-8226 = test system: RPMI-8226
SK-MEL-5 = test system: SK-MEL-5
SN12C = test system: SN12C
DMS-273 = test system: DMS-273
A549 = test system: A549
IGROV-1 = test system: IGROV-1
SW-620 = test system: SW-620
SNB-19 = test system: SNB-19
HOP-62 = test system: HOP-62
HCT-15 = test system: HCT-15
HOP-18 = test system: HOP-18
NCI-H460 = test system: NCI-H460
786-0 = test system: 786-0
SF-268 = test system: SF-268
SF-539 = test system: SF-539
CAKI-1 = test system: CAKI-1
TK-10 = test system: TK-10
KM12 = test system: KM12
NCI-H522 = test system: NCI-H522

With `NC12CC3CC(C1)CC(C(=O)O)(C3)C2` the GI50 (SK-OV-3) was > 100 µM (inactive), the GI50 (UACC-62) was > 100 µM (inactive) and the GI50 (CCRF-CEM) was > 100 µM (inactive). The GI50 (OVCAR-4) was > 100 µM (inactive), the GI50 (HCT-116) was > 100 µM (inactive) and the GI50 (HL-60) was > 100 µM (inactive). The GI50 (DMS-114) was > 100 µM (inactive), the GI50 (UACC-257) was > 100 µM (inactive) and the GI50 (XF498) was > 100 µM (inactive). The GI50 (SR) was > 100 µM (inactive), the GI50 (U-251) was > 100 µM (inactive) and the GI50 (MOLT-4) was > 100 µM (inactive). For the same molecule, the GI50 (UO-31) was > 100 µM (inactive), the GI50 (HT-29) was > 100 µM (inactive) and the GI50 (HOP-92) was > 100 µM (inactive). For the same molecule, the GI50 (LOX IMVI) was > 100 µM (inactive), the GI50 (M14) was > 100 µM (inactive) and the GI50 (M19-MEL) was > 100 µM (inactive). For the same molecule, the GI50 (K562) was 2.73 µM (inactive), the GI50 (SNB-78) was > 100 µM (inactive) and the GI50 (KM-20L2) was > 100 µM (inactive). For the same molecule, the GI50 (SF-295) was > 100 µM (inactive), the GI50 (EKVX) was > 100 µM (inactive) and the GI50 (LXFL 529) was > 100 µM (inactive). For the same molecule, the GI50 (ACHN) was > 100 µM (inactive), the GI50 (SNB-75) was > 100 µM (inactive) and the GI50 (DLD-1) was > 100 µM (inactive). For the same molecule, the GI50 (OVCAR-8) was > 100 µM (inactive), the GI50 (A498) was > 100 µM (inactive) and the GI50 (SK-MEL-28) was > 100 µM (inactive). The GI50 (HCC 2998) was > 100 µM (inactive), the GI50 (OVCAR-5) was > 100 µM (inactive) and the GI50 (OVCAR-3) was > 100 µM (inactive). The GI50 (NCI-H23) was > 100 µM (inactive), the GI50 (RPMI-8226) was > 100 µM (inactive) and the GI50 (SK-MEL-5) was > 100 µM (inactive). The GI50 (SN12C) was > 100 µM (inactive), the GI50 (DMS-273) was > 100 µM (inactive) and the GI50 (A549) was > 100 µM (inactive). The GI50 (IGROV-1) was > 100 µM (inactive), the GI50 (SW-620) was > 100 µM (inactive) and the GI50 (SNB-19) was > 100 µM (inactive). The GI50 (HOP-62) was > 100 µM (inactive), the GI50 (HCT-15) was > 100 µM and the GI50 (HOP-18) was > 100 µM (inactive). For the same molecule, the GI50 (NCI-H460) was > 100 µM (inactive), the GI50 (786-0) was > 100 µM (inactive) and the GI50 (SF-268) was > 100 µM (inactive). The GI50 (SF-539) was > 100 µM (inactive), the GI50 (CAKI-1) was > 100 µM (inactive) and the GI50 (TK-10) was > 100 µM (inactive). For the same molecule, the GI50 (KM12) was > 100 µM (inactive) and the GI50 (NCI-H522) was > 100 µM (inactive).
